The record followed here is paper PMC4549042, “Targeting procaspase-3 with WF-208, a novel PAC-1 derivative, causes selective cancer cell apoptosis” (Journal of Cellular and Molecular Medicine, 2015).

The subject of data set [1] is MCF-7 cells transfected with procaspase-3. The data set is described as follows: Cytotoxicity in MCF-7 cells transfected with procaspase-3. Conditions: different concentrations, vs empty vector. Type of data set: cell-based, human. As for the experimental part: (§1) The cell viability effects of the tested compounds were determined by MTT assay. Cells (1 × 10^4 cells/100 μl/well) were seeded into 96-well culture plates. After overnight incubation, cells were treated with various concentrations of compounds for 72 hrs. Subsequently, 10 μl MTT solution (2.5 mg/ml in PBS) was added to each well, than the cells were incubated for an additional 3–4 hrs at 37°C. After centrifugation (200 × g, 10 min.), the medium with MTT was aspirated, followed by the addition of 100 μl DMSO. The optical density of each well was measured at 570 nm with a Biotek Synergy TM HT Reader.
HL-60 cells were transfected with procaspase-3 siRNA (Invitrogen, New York, USA, 100 nmol/l final concentration, Sense siRNA Sequence: GUCUAACUGGAAAACCCAAtt Antisense siRNA Sequence: UUGGGUUUUCCAGUUAGACtt) by Lipofectamine 2000 (Invitrogen) according to the manufacturer’s instructions. Scrambled siRNA (Invitrogen) was control. The cDNA of human procaspase-3 was cloned into pIRES2-EGFP expression vector, and procaspase-3 and EGFP genes were separately expressed. The pIRES2-EGFP and pIRES2-EGFP-procaspase-3 were transiently transfected into MCF-7 cells. Expression of procaspase-3 was verified by western blotting.

Data set [2] concerns the target T1, rh-procaspase-3 (Homo sapiens, UniProt P42574).
T1 construct: purchased R&D System (Minneapolis, USA)
T1 sequence (P42574 1-277): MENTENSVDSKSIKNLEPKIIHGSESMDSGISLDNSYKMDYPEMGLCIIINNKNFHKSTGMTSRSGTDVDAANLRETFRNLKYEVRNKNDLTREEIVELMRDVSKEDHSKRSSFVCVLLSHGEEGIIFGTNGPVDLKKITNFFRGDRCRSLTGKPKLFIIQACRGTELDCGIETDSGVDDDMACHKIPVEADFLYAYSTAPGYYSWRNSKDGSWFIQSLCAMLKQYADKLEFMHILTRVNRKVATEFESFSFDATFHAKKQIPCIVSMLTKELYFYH
The data set is described as follows: Assay of zinc inhibition of procaspase-3 activation. Type of data set: biochemical. The conditions noted are these: PC3 + 5 μM ZnSO4; read-out: EC50 of procaspase-3 activation in zinc-containing buffer. As for the experimental part:
HEPES buffer [with 50 mM HEPES and 300 mM NaCl (pH 7.4)] was treated with Chelex resin to remove trace bivalent cations (including zinc ion). ZnSO4 and different concentration PAC-1 or WF-208 was added to procaspase-3 in HEPES to yield a final concentration of 0.5 μM procaspase-3. After 12 hrs of incubation at 37°C, Ac-DEVD-pNA in buffer [50 mM Hepes (pH 7.4), 100 mM NaCl, 10 mM DTT, 0.1 mM EDTA disodium salt, 0.10% Chaps, 10% glycerol] was added. The final concentration Ac-DEVD-pNA is 0.4 μM. Then the plate was read absorbance at 405 nm in kinetic mode for 10 min. On the other hand, after various time of incubation at 37°C, western blotting was used to detect the cleavage of procaspase-3 [13],[14].

Data set [3] has as its system human malignant cell lines. The data set is described as follows: MTT cytotoxicity in fifteen human malignant cell lines. Type of data set: cell-based. The conditions noted are these: for IC50: Homo sapiens, MTT, 72 hrs.
Text: Human malignant cell lines, A549, Colo-205, DU145, NCI-H226, Hep-3B, Hep-G2, K562, MCF-7, U-87, GBC-SD, MDA-MB-435S, PC-3, U-937, HL60, SH-SY5Y and human normal cell lines, MCF-10A and L-02, HUVEC were obtained from the American Type Culture Collection (Manassas, VA, USA) and National Center for Medical Culture Collection (Shanghai, China). They were routinely cultured in RPMI 1640, DMEM or DMEM/F12 (Gibco, New York, USA) supplemented with 10% foetal bovine serum (Gibco, New York, USA) and maintained at 37°C in a humidified incubator with 5% CO2.
as §1

In data set [4] the test system is mouse primary cortical cell. The data set is described as follows: Cytotoxicity in mouse primary cortical neuron cells. Type of data set: cell-based. Conditions: neurotoxicity. As for the experimental part:
as §1

The target of data set [5] is T1, rh-procaspase-3. Description: Caspase-3 activation assay (procaspase-3 activation in vitro). The format is biochemical. The conditions noted are these: rh-procaspase-3, concentrations 0.08–100 μM. As for the experimental part:
Procaspase-3 protein was purchased from R&D System (Minneapolis, USA). Procaspase-3 protein was added into 384-well plates. Tested compounds (or DMSO as control) were then added to achieve a final concentration of procaspase-3 of 50 ng/ml. Each plate was incubated for 2 hrs at 37°C. Then caspase-3 peptide substrate (acetyl Asp-Glu-Val-Asp-[…] (Ac-DEVD-pNa), 200 μM) were added. The absorbance of each well was measured at 405 nm in kinetic mode for 10 min [13].

For data set [6], the system named is XIAP and survivin mRNA. Description: Quantitative PCR of XIAP and survivin mRNA. The conditions noted are these: real-time PCR, different concentrations. The format is cell-based, human. As for the experimental part: About 1 × 10^6 cells were gathered after pre-treatment with PAC-1 or WF-208 as described previously. Total RNA was isolated using RNeasy Mini Kit (Qiagen, Duesseldorf, Germany) as described by the product’s instruction. One microgram of RNA was reversely transcribed with ReverAid First Stand cDNA Sythesis Kit (Thermo Fisher, Rockford, USA). For quantitative PCR, analysis was carried out by using iQ SYBR Green Supermix (Bio-Rad, West Berkeley, USA) and the CFX96 RT-PCR Detection System (Bio-Rad) as instructed by the manufacturer. Primers were GAPDH reverse primer 5′-[…]-3′ and forward primer 5′-TTGCCGACAGGATGCAGAA-3′; XIAP reverse primer 5′-TTGCCGACAGGATGCAGAA-3′ and forward primer 5′-[…]-3′; Survivin reverse primer 5′-GGAAACTGCGGAGAAAGTG-3′ and forward primer 5′-TAAACCCTGGAAGTGGTGC-3′. The PCR cycle started with 5 min. at 95°C, followed by 35 cycles of 3 steps (30 sec. at 95°C, 25 sec. at 56°C, 20 sec. at 72°C). The result was calculated as 2^−ΔΔCt of real-time fluorescence intensity.
Background: In qPCR the cycle at which signal appears reflects the starting amount.

Where two headings read alike, the source gives them in different places.

`O=C(CN1CCN(Cc2nc(-c3ccc(COc4ccc(Cl)cc4)cc3)no2)CC1)N/N=C/c1ccc(OCc2csc(Cc3ccc4c(c3)OCO4)n2)cc1O` [C2]: the “cytotoxic effect in MCF-7 cells transfected with procaspase-3” value in data set [1] is on record as “more sensitive”. Moreover, the results for the EC50 in data set [2] and in data set [5] were 2490 nM and 560 nM, respectively. Further, the IC50 (usually the concentration at which inhibition is half-maximal) in data set [3] (range over the cell lines, read-out: IC50 values against tumour cells) is 80 to 12800 nM; in data set [3] (read-out: overall mean IC50 value in the fifteen malignant cell lines), 1660 nM; in data set [4], 96200 nM. Further, the “fold increase of cytotoxicity (mean IC50) compared with PAC-1” value in data set [3] (fifteen malignant cell lines) is about 20 fold. For the same compound, the “XIAP and survivin mRNA” value in data set [6] is on record as “failed to change”.
